Measured values: patent publication US11384078B2, “5,6-fused-bicyclic compounds and compositions for the treatment of parasitic diseases” (NOVARTIS AG, priority 2017, dated 2022)

Key:
Type in all cases: cell-based
[1] = system: Trypanosoma brucei brucei (Lister 427) strain; test: Assay for growth inhibition against Trypanosoma brucei brucei (Cell TiterGlo ATP luminescence); conditions: Trypanosoma brucei, T. brucei brucei (Lister 427); read-out: T. Brucei (HAT) EC50
Experimental: Assay for Growth Inhibition Against Trypanosoma brucei brucei
The proliferation is quantified by the addition of Cell TiterGlo® (Promega®) a luminescent cell viability assay that measures the number of viable cells in culture based on the quantification of cellular ATP amount, which is an indicator of metabolically active cells.
Trypanosoma brucei brucei (Lister 427) strain was grown in Hirumi 9 (HMI-9) media supplemented with 10% v/v fetal bovine serum (FBS) and 10% v/v serum plus. For measurement of cell proliferation inhibition, test compounds were three fold serially diluted in duplicates to 384-well white plates, resulting in 10 dilutions for each compound. A volume of 40 μL of T. b. brucei culture (10,000 parasites/mL) was added to each well, and the assay plates were incubated at 37° C. for 2 days in a CO2 incubator. Growth inhibition was monitored by measuring ATP levels, which, is used as a surrogate marker for growth. Relative luminescence units were measured using TECAN® M1000 after 30 min of adding 40 μl of Cell TiterGlo®. IC50 values were determined by analyzing the data using HELIOS software. IC50 is defined as the lowest concentration of the compound that inhibited 50% growth of the T. b. brucei wild type strain compared to untreated controls.

[2] = system: Leishmania donovani axenic amastigote; test: In vitro assay for growth inhibition of Leishmania donovani axenic amastigote (Cell TiterGlo luminescence); conditions: Leishmania donovani, L. donovani axenic amastigotes in vitro; read-out: L. donovani amastigotes EC50
Experimental: Abbreviations as used herein below have the corresponding meaning: • CPRG Chlorophenol Red-P-D-galactopyranoside • ATP adenosine triphosphate • BSA bovine serum albumin • DMSO dimethyl sulfoxide • FBS fetal bovine serum • PBS phosphate buffered saline • RPMI 1640 Rosweli Park Memorial Institute (RPMI) 1640 medium In Vitro Assay for Growth Inhibition of Leishmania donovani Axenic Amastiqote
Leishmania donovani axenic amastigote parasites are grown at 37° C., 5% CO2 in media made of RPMI 1640, 4 mM L-glutamine, 20% heat inactivated FBS, 100 units/ml of penicillin and 100 μg/ml of streptomycin, 23 μM folic acid, 100 μM adenosine, 22 mM D-glucose, 25 mM MES. The pH of media is adjusted to 5.5 at 37° C. using HCl. 20 μL of media is first dispensed into 384 well plates and 100 nL of the compounds of invention in DMSO are added to the plate wells. At the same time control compounds and DMSO are added to plates to serve as the positive and negative controls, respectively. 40 μL of parasite culture (9600 parasites) are then added to the plate wells. The plates are then placed into incubators. After two days incubation, 20 μL of Cell TiterGlo® (Promega) is added to the plate wells. The luminescence signal of each well is measured using the Envision reader (Perkin Elmer).

[3] = system: Trypanosoma cruzi amastigotes cultured in 3T3 fibroblast cells; test: Assay for growth inhibition of kinetoplastid parasite Trypanosoma cruzi (beta-galactosidase Tulahuen strain, CPRG readout); conditions: Trypanosoma cruzi, Fibroblast, T. cruzi amastigotes in 3T3 fibroblast cells; read-out: Buckner infectious T. cruzi EC50
Source text: Assay for Growth Inhibition of Kinetoplastid Parasite Trypanosoma cruzi
Compounds of the invention can be assayed for inhibitor activity against Trypanosoma cruzi amastigotes cultured in 3T3 fibroblast cells. The assay is done using the mammalian stage (amastigotes) of T. cruzi that replicates in the intracellular space of host cells. The host cells are initially infected with the culture-derived trypomastigotes that rapidly invade and then divide as amastigotes. The protocol uses the Tulahuen strain of T. cruzi that has been engineered to express the E. coli beta-galactosidase gene (Lac-Z) (Antimicr. Agents Chemoth. 40:2592, 1996). This allows for a colorimetric readout by using the substrate CPRG and an absorbance plate reader.
3T3 fibroblast cells are re-suspended in RPMI-1640 medium without phenol red medium supplemented with 10% FBS (heat inactivated), 100 μg/ml penicillin, and 100 μg/ml streptomycin. Forty μL of suspension (1,000 cells) is dispensed into 384-well plates and incubated overnight at 37° C. temperature and in atmosphere containing 5% CO2. The following day, 100 nL of compounds of the invention in DMSO are added to plate wells containing 3T3 cells. At the same time control compounds (benznidazole and nifurtimox) and DMSO are added to plates to serve as the positive and negative controls, respectively. After that, 10 μL of media containing 10,000 T. cruzi trypomastigotes are added to each plate well and plates are placed back into incubators. After 6 day incubation, 10 μL of reagent solution (0.6 mM CPRG, 0.6% NP-40 in PBS) is added to plates and incubated at room temperature for 2 hours. Absorbance is then measured on SpectraMax GEMINI fluorimeter to determine relative number of T. cruzi cells present in each plate well.

Structure (SMILES)	EC50 [1] [µM]	EC50 [2] [µM]	EC50 [3] [µM]
CC(C)c1cnc2nn(-c3cc(NC(=O)N4C[C@H]5C[C@H]5C4)ccc3F)cc2c1 [Compound 223, (1R,5S)-N-{4-fluoro-3-[5-(propan-2-yl)-2H-pyrazolo[3,4-b]pyridin-2-yl]phenyl}-3-azabicyclo[3.1.0]hexane-3-carboxamide]	0.064	0.082	0.037
Cc1ccoc1C(=O)Nc1ccc(F)c(-n2cc3cc(C(C)C)cnc3n2)c1 [Compound 115, N-{4-fluoro-3-[5-(propan-2-yl)-2H-pyrazolo[3,4-b]pyridin-2-yl]phenyl}-3-methylfuran-2-carboxamide]	< 0.023	0.15	0.014
O=C(Nc1ccc(F)c(-n2cc3cc(C4CCC4)cnc3n2)c1)N1CC(F)(F)C1 [Compound 31, N-(3-{5-cyclobutyl-2H-pyrazolo[3,4-b]pyridin-2-yl}-4-fluorophenyl)-3,3-difluoroazetidine-1-carboxamide]	< 0.023	0.0062	0.0083
Cc1cccnc1-c1cnc2nn(-c3cc(NC(=O)N4CC(F)C4)ccc3F)cc2c1 [Compound 6, 3-fluoro-N-(4-fluoro-3-(5-(3-methylpyridin-2-yl)-2H-pyrazolo[3,4-b]pyridin-2-yl)phenyl)azetidine-1-carboxamide]	< 0.023	0.012	0.0099
CC(C)c1cnc2nn(-c3cc(NC(=O)C4(C)CC(F)(F)C4)ccc3F)cc2c1 [Compound 117, 3,3-difluoro-N-{4-fluoro-3-[5-(propan-2-yl)-2H-pyrazolo[3,4-b]pyridin-2-yl]phenyl}-1-methylcyclobutane-1-carboxamide]	13	9.3	5.5
CC(C)c1cnc2nn(-c3cc(NC(=O)N4CC[C@@H](C)C4)ccc3F)cc2c1 [Compound 221, (3R)-N-{4-fluoro-3-[5-(propan-2-yl)-2H-pyrazolo[3,4-b]pyridin-2-yl]phenyl}-3-methylpyrrolidine-1-carboxamide]	0.009	0.003	0.001
O=C(Nc1ccc(F)c(-n2cc3cc(CC4CCC4)cnc3n2)c1)c1ccco1 [Compound 62, N-{3-[5-(cyclobutylmethyl)-2H-pyrazolo[3,4-b]pyridin-2-yl]-4-fluorophenyl}furan-2-carboxamide]	< 0.023	0.039	0.0051
O=C(Nc1ccc(F)c(-n2cc3cc(CC4CCC4)cnc3n2)c1)N1CC[C@@H](F)C1 [Compound 51, (3R)-N-{3-[5-(cyclobutylmethyl)-2H-pyrazolo[3,4-b]pyridin-2-yl]-4-fluorophenyl}-3-fluoropyrrolidine-1-carboxamide]	< 0.023	0.015	0.019
Cc1cccnc1-c1cnc2nn(-c3cc(NC(=O)N4CC[C@@H](F)C4)ccc3F)cc2c1 [Compound 4, (R)-3-fluoro-N-(4-fluoro-3-(5-(3-methylpyridin-2-yl)-2H-pyrazolo[3,4-b]pyridin-2-yl)phenyl)pyrrolidine-1-carboxamide]	< 0.023	0.0013	0.001
C[C@H]1CN(c2cnc3nn(-c4cc(NC(=O)N5CC(F)C5)ccc4F)cc3c2)C[C@H](C)O1 [Compound 177, N-(3-{5-[(2S,6S)-2,6-dimethylmorpholin-4-yl]-2H-pyrazolo[3,4-b]pyridin-2-yl]-4-fluorophenyl)-3-fluoroazetidine-1-carboxamide]	< 0.023	0.027	0.055
O=C(Nc1ccc(F)c(-n2cc3cc(N4CCn5ccnc5C4)cnc3n2)c1)N1CC(F)C1 [Compound 180, 3-fluoro-N-[4-fluoro-3-(5-{5H,6H,7H,8H-imidazo[1,2-a]pyrazin-7-yl}-2H-pyrazolo[3,4-b]pyridin-2-yl)phenyl}azetidine-1-carboxamide]	0.038	0.55	3.9
CC(C)c1cnc2nn(-c3cc(NC(=O)N(C)CC(F)(F)F)ccc3F)cc2c1 [Compound 227, 1-{4-fluoro-3-[5-(propan-2-yl)-2H-pyrazolo[3,4-b]pyridin-2-yl]phenyl}-3-methyl-3-(2,2,2-trifluoroethyl)urea]	0.059	0.03	0.011
CC(C)c1cnc2nn(-c3cc(NC(=O)N4CCN5CCC4CC5)ccc3F)cc2c1 [Compound 229, N-{4-fluoro-3-[5-(propan-2-yl)-2H-pyrazolo[3,4-b]pyridin-2-yl]phenyl}-1,4-diazabicyclo[3.2.2]nonane-4-carboxamide]	12.5	25	15.6
O=C(Nc1ccc(F)c(-n2cc3cc(N4CCn5cnnc5C4)cnc3n2)c1)N1CC(F)C1 [Compound 186, 3-fluoro-N-[4-fluoro-3-(5-{5H,6H,7H,8H-[1,2,4]triazolo[4,3-a]pyrazin-7-yl}-2H-pyrazolo[3,4-b]pyridin-2-yl)phenyl}azetidine-1-carboxamide]	0.24	0.46	
O=C(Nc1ccc(F)c(-n2cc3cc(-c4ccccn4)cnc3n2)c1)C1CC1 [Compound 12, N-{4-fluoro-3-[5-(pyridin-2-yl)-2H-pyrazolo[3,4-b]pyridin-2-yl]phenyl}cyclopropanecarboxamide]	< 0.023	0.041	
O=C(Nc1ccc(F)c(-n2cc3cc(C4CCCCO4)cnc3n2)c1)N1CCC1 (stereo not shown) [Compound 288, N-(4-fluoro-3-(5-(tetrahydro-2H-pyran-2-yl)-2H-pyrazolo[3,4-b]pyridin-2-yl)phenyl)azetidine-1-carboxamide]	0.26	0.176	
CC(C)c1cnc2nn(-c3cc(NC(=O)C4CC(F)C4)ccc3F)cc2c1 (stereo not shown) [Compound 121, 3-fluoro-N-{4-fluoro-3-[5-(propan-2-yl)-2H-pyrazolo[3,4-b]pyridin-2-yl]phenyl}cyclobutane-1-carboxamide]	0.12	0.21	
COCCNc1cnc2nn(-c3cc(NC(=O)N4CC(F)C4)ccc3F)cc2c1 [Compound 185, 3-fluoro-N-(4-fluoro-3-{5-[(2-methoxyethyl)amino]-2H-pyrazolo[3,4-b]pyridin-2-yl]phenyl)azetidine-1-carboxamide]	< 0.023	0.2	
O=C(Nc1ccc(F)c(-n2cc3cc(-c4cccnc4)cnc3n2)c1)N1CC(F)C1 [Compound 189, 3-fluoro-N-{4-fluoro-3-[5-(pyridin-3-yl)-2H-pyrazolo[3,4-b]pyridin-2-yl]phenyl}azetidine-1-carboxamide]	< 0.023	0.003	
[2H]C([2H])([2H])c1nc(C)c(C(=O)Nc2ccc(F)c(-n3cc4cc(-c5ncccc5C)cnc4n3)c2)o1 [Compound 278, N-{4-fluoro-3-[5-(3-methylpyridin-2-yl)-2H-pyrazolo[3,4-b]pyridin-2-yl]phenyl}-2-(^2H3)methyl-4-methyl-1,3-oxazole-5-carboxamide]	0.013	0.007	
O=C(Nc1ccc(F)c(-n2cc3cc(N4CC5CCC(C4)O5)cnc3n2)c1)N1CC(F)C1 [Compound 184, 3-fluoro-N-[4-fluoro-3-(5-{8-oxa-3-azabicyclo[3.2.1]octan-3-yl}-2H-pyrazolo[3,4-b]pyridin-2-yl)phenyl}azetidine-1-carboxamide]	< 0.023	0.0073	
